Source: the Kinase Knowledgebase extract (Sharma et al. 2016)

Experiments:
PIK3CA (human) [1] = target: PIK3CA (human) (UniProt P42336); assay: Inhibition of PIK3CA Kinase Activity
PIK3CA (human) [2] = target: PIK3CA (human) (UniProt P42336); assay: Inhibition of A2780 Cell Proliferation

PIK3CA (human), sequence (P42336 whole entry, looked up): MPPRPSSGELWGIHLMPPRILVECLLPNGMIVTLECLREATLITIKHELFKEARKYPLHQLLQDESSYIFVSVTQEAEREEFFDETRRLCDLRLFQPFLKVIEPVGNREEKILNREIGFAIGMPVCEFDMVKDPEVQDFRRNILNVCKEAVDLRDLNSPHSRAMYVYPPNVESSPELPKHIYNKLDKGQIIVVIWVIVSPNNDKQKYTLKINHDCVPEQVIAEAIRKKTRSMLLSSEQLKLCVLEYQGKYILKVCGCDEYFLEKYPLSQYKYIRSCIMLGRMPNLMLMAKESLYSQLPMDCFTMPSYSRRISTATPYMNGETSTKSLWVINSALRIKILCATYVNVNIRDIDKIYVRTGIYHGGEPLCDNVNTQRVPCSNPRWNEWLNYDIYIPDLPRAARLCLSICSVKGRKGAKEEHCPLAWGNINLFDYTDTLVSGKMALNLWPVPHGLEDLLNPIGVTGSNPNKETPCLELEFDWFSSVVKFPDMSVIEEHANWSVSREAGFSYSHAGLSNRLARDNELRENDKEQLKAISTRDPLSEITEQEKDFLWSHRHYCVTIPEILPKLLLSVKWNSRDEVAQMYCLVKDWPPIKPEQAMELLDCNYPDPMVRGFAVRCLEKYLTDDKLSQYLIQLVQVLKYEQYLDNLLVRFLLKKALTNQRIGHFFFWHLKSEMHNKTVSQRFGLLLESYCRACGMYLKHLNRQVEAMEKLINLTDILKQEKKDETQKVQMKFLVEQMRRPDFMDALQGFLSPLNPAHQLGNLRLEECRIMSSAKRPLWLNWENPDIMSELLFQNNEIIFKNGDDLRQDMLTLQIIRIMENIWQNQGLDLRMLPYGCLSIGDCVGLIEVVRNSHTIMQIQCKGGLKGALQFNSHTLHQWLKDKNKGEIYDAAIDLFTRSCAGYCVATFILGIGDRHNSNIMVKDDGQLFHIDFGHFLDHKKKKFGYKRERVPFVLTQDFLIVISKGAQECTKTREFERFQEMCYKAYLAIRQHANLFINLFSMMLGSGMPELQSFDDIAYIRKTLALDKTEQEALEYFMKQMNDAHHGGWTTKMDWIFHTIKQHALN

Row | SMILES | IC50 (PIK3CA (human) [1]) [µM] | EC50 (PIK3CA (human) [2]) [µM]
1 | COc1c(-c2cnc(N)c(C(F)(F)F)c2)ccc2nc(NC(=O)C(F)(F)F)cn12 | < 25 | < 25
2 | Nc1ncc(-c2ccc3nc(NC(=O)N4CC[C@H]4C(=O)O)cn3c2)cc1C(F)(F)F | < 10 | < 25
3 | CC(=O)Nc1cn2cc(-c3cnc(N)c(OC4CCN(C)CC4)n3)ccc2n1 | < 10 | < 25
4 | Nc1ncc(-c2ccc3nc(NC(=O)C(F)(F)F)cn3c2O)cc1C(F)(F)F | < 10 | < 25
5 | COc1cc(-c2ccc3nc(NC(C)=O)cn3n2)c(C)nc1N | < 10 | < 25
6 | CC(=O)Nc1nc2ccc(-c3cnc(N)c(C(F)(F)F)c3)cn2c1C#CCNC(=O)OC(C)(C)C | < 1 | < 10
7 | CC(C)(C)OC(=O)NCCCC(=O)Nc1cn2nc(-c3cnc(N)c(C(F)(F)F)c3)ccc2n1 | < 1 | < 1
8 | CCNN=Cc1cc(-c2ccc3nc(NC(C)=O)cn3c2)cnc1N | < 1 | < 10
9 | COc1ccc(CC(=O)Nc2cn3cc(-c4cnc(N)c(C(F)(F)F)c4)ccc3n2)cc1 | < 1 | < 1
10 | COC(=O)CCCC(=O)Nc1cn2nc(-c3cnc(N)c(C(F)(F)F)c3)ccc2n1 | < 1 | < 10
11 | CC(=O)Nc1cn2cc(-c3cnc(N)c(C=NNCC(F)(F)F)c3)ccc2n1 | < 1 | < 1
12 | CC(=O)Nc1cn2nc(-c3cnc(N)c(-c4cccc(C(F)(F)F)c4)c3)ccc2n1 | < 1 | < 10
13 | CCOCC(=O)Nc1cn2nc(-c3cnc(N)c(C(F)(F)F)c3)ccc2n1 | < 1 | < 10
14 | CC(=O)Nc1cn2cc(-c3cnc(N)c(CN4CCCC4)c3)ccc2n1 | < 1 | < 25
15 | Nc1ncc(-c2ccc3nc(NC(=O)CCCC(=O)O)cn3n2)cc1C(F)(F)F | < 1 | < 25
16 | Nc1ncc(-c2ccc3nc(NC(=O)CO[C@H]4CCNC4)cn3n2)cc1C(F)(F)F | < 1 | < 1
17 | CC(=O)Nc1nc2ccc(-c3cnc(N)c(C(F)(F)F)c3)c(F)c2s1 | < 1 | < 10
18 | CC(=O)Nc1cn2cc(-c3cnc(N)c(-c4cccc(N5CCOCC5)c4)c3)ccc2n1 | < 1 | < 1
19 | CC(=O)Nc1cn2nc(-c3cnc(N)c(C(=O)NCCN4CCCC4)c3)ccc2n1 | < 1 | < 10
20 | CC(=O)Nc1cn2cc(-c3cnc(N)c(Br)n3)ccc2n1 | < 1 | < 25
21 | CC(=O)Nc1nc2ccc(-c3cnc(N)c(C(F)(F)F)c3)cn2c1C#Cc1ccccn1 | < 1 | < 10
22 | CC(=O)Nc1cn2nc(-c3cnc(N)c(-c4ccccc4OC(F)(F)F)c3)ccc2n1 | < 1 | < 1
23 | CC(=O)N1CCC[C@H]1C(=O)Nc1cn2cc(-c3cnc(N)c(C(F)(F)F)c3)ccc2n1 | < 1 | < 25
24 | COc1nc(-c2ccc3nc(NC(C)=O)cn3n2)cnc1N | < 1 | < 10
25 | CC(=O)Nc1cn2nc(-c3cnc(N)c(C(=O)O)c3)ccc2n1 | < 1 | < 25
26 | CC(=O)Nc1nc2ccc(-c3cnc(N)c(C(F)(F)F)c3)cn2c1C#Cc1ccc(C)cc1 | < 1 | < 10

Row | SMILES | IC50 (PIK3CA (human) [1]) [µM] | EC50 (PIK3CA (human) [2]) [µM]
27 | Nc1ncc(-c2ccc3nc(NC(=O)c4ccc(-n5ccnc5)cc4)cn3c2)cc1C(F)(F)F | < 1 | < 10
28 | Nc1ncc(-c2ccc3nc(NC(=O)CN4CCCCC4)cn3c2)nc1OCC(F)(F)F | < 1 | < 1
29 | CCN(CC)Cc1cc(-c2ccc3nc(NC(C)=O)cn3n2)cnc1N | < 1 | < 10
30 | COC(=O)C1CCN(C(=O)Nc2cn3cc(-c4cnc(N)c(C(F)(F)F)c4)ccc3n2)C1 (centres undefined) | < 1 | < 10
31 | CCN(CC)Cc1cc(-c2ccc3nc(NC(C)=O)cn3c2)cnc1N | < 1 | < 25
32 | COC[C@@H]1CCCN1C(=O)Nc1cn2cc(-c3cnc(N)c(C(F)(F)F)c3)ccc2n1 | < 1 | < 25
33 | CC(C)(C)OC(=O)N1CC(C(=O)Nc2cn3cc(-c4cnc(N)c(C(F)(F)F)c4)ccc3n2)C1 | < 1 | < 10
34 | Nc1ncc(-c2ccc3nc(NC(=O)N4CCCC4C(F)(F)F)cn3c2)cc1C(F)(F)F (centres undefined) | < 1 | < 10
35 | CNC(=O)Nc1nc2ccc(-c3ccc(N)nc3)cc2s1 | < 1 | < 10
36 | CN(C)CCCC(=O)Nc1cn2nc(-c3cnc(N)c(C(F)(F)F)c3)ccc2n1 | < 1 | < 1
37 | NCCCC(=O)Nc1cn2nc(-c3cnc(N)c(C(F)(F)F)c3)ccc2n1 | < 1 | < 25
38 | CC(=O)Nc1nc2ccc(-c3cnc(N)c(C(F)(F)F)c3)cn2c1C#CCN1CCOCC1 | < 1 | < 10
39 | CNCC(=O)Nc1cn2cc(-c3cnc(N)c(OCCOC)n3)ccc2n1 | < 1 | < 10
40 | Nc1ncc(-c2ccc3nc(NC(=O)N4CC[C@H](O)C4)cn3c2)cc1C(F)(F)F | < 1 | < 10
41 | CC(C)(C)OC(=O)N1CCN(c2ccc(C(=O)Nc3cn4cc(-c5cnc(N)c(C(F)(F)F)c5)ccc4n3)cn2)CC1 | < 1 | < 1
42 | Nc1ncc(-c2ccc3nc(NC(=O)CCCn4ccnc4)cn3c2)cc1C(F)(F)F | < 1 | < 10
43 | CC(=O)Nc1cn2cc(-c3cnc(N)c(-c4ccc(N5CCOCC5)cc4)c3)ccc2n1 | < 10 | < 10
44 | Nc1ccc(-c2ccc3nc(NC(=O)CN4CCOCC4)sc3c2)cn1 | < 1 | < 25
45 | CC(=O)Nc1cn2cc(-c3cnc(N)nc3)ccc2n1 | < 1 | < 25
46 | CC(=O)Nc1nc2ccc(-c3cnc(N)c(CN(C)C)c3)cc2s1 | < 1 | < 10
47 | CC(=O)Nc1nc2ccc(-c3cnc(N)c(C(F)(F)F)c3)cn2c1C#N | < 1 | < 1
48 | COC(=O)Nc1cn2cc(-c3cnc(N)c(C(F)(F)F)c3)ccc2n1 | < 1 | < 10
49 | COCCOc1nc(-c2ccc3nc(NC(=O)COC)cn3c2)cnc1N | < 1 | < 10
50 | CC(=O)Nc1cn2cc(-c3cnc(N)c(Cl)c3)ccc2n1 | < 1 | < 10
51 | CCC(=O)Nc1cn2nc(-c3cnc(N)c(C(F)(F)F)c3)ccc2n1 | < 1 | < 1

More lines, now with the values ahead:

Row | IC50 (PIK3CA (human) [1]) [µM] | EC50 (PIK3CA (human) [2]) [µM] | SMILES
52 | < 1 | < 10 | Nc1ncc(-c2ccc3nc(NC(=O)Cc4ccccn4)cn3c2)cc1C(F)(F)F
53 | < 1 | < 25 | Nc1ncc(-c2ccc3nc(NC(=O)C4CNC4)cn3n2)cc1Cl
54 | < 1 | < 10 | COc1cc(-c2ccc3nc(NC(C)=O)c(Br)n3c2)cnc1N
55 | < 1 | < 25 | CC(=O)Nc1cn2cc(-c3cnc(N)c(C(=O)NCCO)n3)ccc2n1
56 | < 1 | < 25 | CC(=O)Nc1cn2nc(-c3cnc(N)c(N4CCOCC4)n3)ccc2n1
57 | < 1 | < 10 | CCN1CC[C@@H](OCC(=O)Nc2cn3cc(-c4cnc(N)c(C(F)(F)F)c4)ccc3n2)C1
58 | < 1 | < 10 | C[C@@H](NC(=O)OC(C)(C)C)C(=O)Nc1cn2nc(-c3cnc(N)c(C(F)(F)F)c3)ccc2n1
59 | < 1 | < 10 | CC(=O)Nc1cn2cc(-c3cnc(N)c(OCC4CCN(C)CC4)n3)ccc2n1
60 | < 1 | < 25 | CC(=O)Nc1nc2cc(F)c(-c3cnc(N)c(C(F)(F)F)c3)cc2s1
61 | < 1 | < 10 | Nc1ncc(-c2ccc3nc(NC(=O)C4CNC4)cn3n2)cc1C(F)(F)F
62 | < 1 | < 25 | Cc1ccc(C2CCCN2C(=O)Nc2cn3cc(-c4cnc(N)c(C(F)(F)F)c4)ccc3n2)s1 (centres undefined)
63 | < 1 | < 1 | CC(=O)Nc1cn2cc(-c3cnc(N)c(OC4CN(C(=O)OC(C)(C)C)C4)n3)ccc2n1
64 | < 1 | < 1 | CC(=O)Nc1cn2nc(-c3cnc(N)c(OC(F)F)c3)ccc2n1
65 | < 1 | < 10 | CCN1CCN(CCCC(=O)Nc2cn3cc(-c4cnc(N)c(C(F)(F)F)c4)ccc3n2)CC1
66 | < 1 | < 10 | CC(=O)Nc1cn2cc(-c3cnc(N)c(-c4ccccc4C(F)(F)F)c3)ccc2n1
67 | < 1 | < 1 | CC(=O)Nc1nc2ccc(-c3cnc(N)c(OCC(F)(F)F)n3)cc2s1

Row | IC50 (PIK3CA (human) [1]) [µM] | EC50 (PIK3CA (human) [2]) [µM] | SMILES
68 | < 1 | < 25 | NC(=O)N1CC[C@H]1C(=O)Nc1cn2cc(-c3cnc(N)c(C(F)(F)F)c3)ccc2n1
69 | < 1 | < 10 | Nc1ncc(-c2ccc3nc(NC(=O)c4cccc(Cl)c4)cn3c2)cc1C(F)(F)F
70 | < 1 | < 1 | CC(=O)Nc1cn2nc(-c3cnc(N)c(C(=O)NCCNC(=O)OC(C)(C)C)c3)ccc2n1
71 | < 1 | < 10 | NCC(=O)Nc1cn2cc(-c3cnc(N)c(C(F)(F)F)c3)ccc2n1
72 | < 1 | < 25 | CON=Cc1cc(-c2ccc3nc(NC(C)=O)cn3c2)cnc1N
73 | < 1 | < 1 | CC(=O)Nc1cn2nc(-c3cnc(N)c(-c4ccccc4F)c3)ccc2n1
74 | < 1 | < 10 | NCCC(=O)Nc1cn2nc(-c3cnc(N)c(C(F)(F)F)c3)ccc2n1
75 | < 1 | < 10 | CC(C)C(=O)Nc1cn2cc(-c3cnc(N)c(OCC(F)(F)F)n3)ccc2n1
76 | < 1 | < 10 | NC(=O)Nc1cn2cc(-c3cnc(N)c(C(F)(F)F)c3)ccc2n1
77 | < 1 | < 10 | CC(=O)Nc1nc2ccc(-c3cnc(N)c(F)c3)cc2s1
78 | < 1 | < 1 | COCC(=O)Nc1cn2cc(-c3cnc(N)c(OCC(F)(F)F)n3)ccc2n1
79 | < 1 | < 10 | Nc1ncc(-c2ccc3nc(NC(=O)CCO)cn3c2)cc1C(F)(F)F
80 | < 1 | < 1 | CCN1CCCCC1CCC(=O)Nc1cn2nc(-c3cnc(N)c(C(F)(F)F)c3)ccc2n1 (centres undefined)
81 | < 1 | < 1 | CC(=O)Nc1cn2cc(-c3cnc(N)c(-c4ccc(C(F)(F)F)cc4)c3)ccc2n1
82 | < 1 | < 1 | CC(=O)Nc1cn2cc(-c3cnc(N)c(Oc4ccccc4)n3)ccc2n1
